ChEMBL document CHEMBL1201862, “PubChem BioAssay data set” (2004)
The source made the active and inactive calls.

How the values were obtained:
[1] = system: Streptococcus; test: GAS UMAA2166 growth inhibition – luminescence, BacTiterGlo, counter-screen for streptokinase expression inhibitor project, dose response (AID 1915); format: functional, organism-based;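 further: potency for reduction of bacterial viability or growth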
[2] = biological target: T1, Streptokinase A (Streptococcus pyogenes serotype M1, UniProt P10520); test: viability-normalized secreted streptokinase activity reduction – plasminogen activation absorbance, OD405, dose response (AID 1914); format: functional, Streptococcus pyogenes M1 GAS;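 further: secreted streptokinase activity via plasminogen activation per viability signal from cell pellet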
T1 sequence (P10520 whole entry): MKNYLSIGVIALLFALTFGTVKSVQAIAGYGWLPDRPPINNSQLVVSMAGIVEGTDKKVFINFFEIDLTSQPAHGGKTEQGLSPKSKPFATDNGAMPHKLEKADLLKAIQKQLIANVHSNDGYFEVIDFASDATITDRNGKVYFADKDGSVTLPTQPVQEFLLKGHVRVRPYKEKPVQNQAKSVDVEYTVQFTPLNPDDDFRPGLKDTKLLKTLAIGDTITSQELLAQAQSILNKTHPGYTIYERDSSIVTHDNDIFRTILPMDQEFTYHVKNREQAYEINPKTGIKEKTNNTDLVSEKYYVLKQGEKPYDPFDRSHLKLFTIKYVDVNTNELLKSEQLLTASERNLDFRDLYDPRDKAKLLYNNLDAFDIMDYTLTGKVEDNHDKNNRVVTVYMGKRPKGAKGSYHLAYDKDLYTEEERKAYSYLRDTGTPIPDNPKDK

[3] = system: Streptococcus sp. 'group A'; test: Streptococcus pyogenes SK(-)GAS viability under kanamycin – luminescence, BacTiterGlo, confirmation, counter-screen for streptokinase expression inhibitor project, dose response (AID 1900); format: functional, organism-based
[4] = biological target: T2, Cysteine protease ATG4B (Homo sapiens, UniProt Q9Y4P1); format: functional;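 further: Fluorescence-based dose-response confirmation assay measuring inhibition of ATG4B activity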
T2 sequence (Q9Y4P1 whole entry): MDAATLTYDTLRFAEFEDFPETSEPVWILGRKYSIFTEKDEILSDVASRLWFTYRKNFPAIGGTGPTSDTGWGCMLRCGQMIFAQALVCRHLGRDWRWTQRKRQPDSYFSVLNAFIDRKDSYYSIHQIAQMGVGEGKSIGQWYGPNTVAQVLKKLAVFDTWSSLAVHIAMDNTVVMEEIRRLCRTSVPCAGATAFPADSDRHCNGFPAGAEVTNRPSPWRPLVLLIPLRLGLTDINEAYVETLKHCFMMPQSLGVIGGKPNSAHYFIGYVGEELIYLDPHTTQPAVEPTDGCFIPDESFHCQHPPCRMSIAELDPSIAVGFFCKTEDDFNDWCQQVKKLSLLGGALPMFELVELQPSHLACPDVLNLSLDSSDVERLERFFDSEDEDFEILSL

[5] = biological target: Phospholipase A2 (Homo sapiens, UniProt P04054); format: functional;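 further: confirmatory dose-response counterscreen on phospholipase A2, testing hits that came from an ultra-high-throughput screen for ATG4B inhibitors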
[6] = biological target: Adenosylmethionine-8-amino-7-oxononanoate aminotransferase (Mycobacterium tuberculosis, UniProt P9WQ81); test: Mycobacterium tuberculosis BioA enzyme inhibitor Measured in Biochemical System Using Plate Reader - 2163-02_Inhibitor_Dose_CherryPick_Activity.; format: functional, Mycobacterium tuberculosis UT205
[7] = biological target: Protein Wnt-3a (Mus musculus, UniProt P27467); test: antagonism of Wnt3a pathway luciferase reporter – Wnt-LIGHT cells, luminescence, selectivity assay for Gli-SUFU antagonist project, dose response (AID 651570); format: functional; conditions: read-out: IC50_Mean;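 further: Wnt-LIGHT reporter cells stimulated with conditioned medium from Wnt3a-producing cells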
[8] = biological target: T3, Endoribonuclease toxin MazF (Escherichia coli K-12, UniProt P0AE70); test: activation of MazEF endoribonuclease cleavage – biochemical, fluorescence, single-stranded RNA substrate, uHTS hits, dose response (AID 588481); format: functional
T3 sequence (P0AE70 whole entry): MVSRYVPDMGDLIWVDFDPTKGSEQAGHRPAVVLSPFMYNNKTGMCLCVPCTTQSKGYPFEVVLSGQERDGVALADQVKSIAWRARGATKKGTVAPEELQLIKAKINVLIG

[9] = biological target: T3, Endoribonuclease toxin MazF; test: substrate-only fluorescence increase artefacts – biochemical, single-stranded RNase substrate, counter-screen for MazEF activator project, dose response (AID 588502); format: functional
[10] = biological target: T4, Caspase-3 (Homo sapiens, UniProt P42574); test: SAR Analysis of small molecule inhibitors of Sentrin-specific proteases (SENPs) using a Caspase-3 Selectivity assay. [Related pubchem assays (depositor defined):AID2540, AID2599, AID434973, AID489001]; format: functional
T4 sequence (P42574 whole entry): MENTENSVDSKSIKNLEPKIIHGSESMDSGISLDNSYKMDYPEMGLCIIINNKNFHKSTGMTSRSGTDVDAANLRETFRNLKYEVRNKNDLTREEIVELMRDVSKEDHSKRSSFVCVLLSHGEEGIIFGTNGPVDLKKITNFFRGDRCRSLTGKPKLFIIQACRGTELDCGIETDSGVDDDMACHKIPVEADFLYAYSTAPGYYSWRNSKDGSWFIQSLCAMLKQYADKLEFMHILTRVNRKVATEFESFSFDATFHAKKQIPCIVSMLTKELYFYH

[11] = biological target: T5, Sentrin-specific protease 8 (Homo sapiens, UniProt Q96LD8); test: inhibition of human SENP8 cleavage activity – biochemical, luminescence, SAR follow-up (AID 504501); format: functional
T5 sequence (Q96LD8 whole entry): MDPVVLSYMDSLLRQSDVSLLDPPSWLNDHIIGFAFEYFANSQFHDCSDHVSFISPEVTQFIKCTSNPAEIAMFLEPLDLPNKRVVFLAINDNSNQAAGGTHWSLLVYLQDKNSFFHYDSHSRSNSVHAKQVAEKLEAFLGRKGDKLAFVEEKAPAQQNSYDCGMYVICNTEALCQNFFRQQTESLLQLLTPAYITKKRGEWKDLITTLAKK

[12] = biological target: T6, Sentrin-specific protease 6 (Homo sapiens, UniProt Q9GZR1); test: SAR Analysis of small molecule inhibitors of Sentrin-specific protease 6 (SENP6) using a Luminescent assay. [Related pubchem assays (depositor defined):AID2582, AID2599]; format: functional
T6 sequence (Q9GZR1 whole entry): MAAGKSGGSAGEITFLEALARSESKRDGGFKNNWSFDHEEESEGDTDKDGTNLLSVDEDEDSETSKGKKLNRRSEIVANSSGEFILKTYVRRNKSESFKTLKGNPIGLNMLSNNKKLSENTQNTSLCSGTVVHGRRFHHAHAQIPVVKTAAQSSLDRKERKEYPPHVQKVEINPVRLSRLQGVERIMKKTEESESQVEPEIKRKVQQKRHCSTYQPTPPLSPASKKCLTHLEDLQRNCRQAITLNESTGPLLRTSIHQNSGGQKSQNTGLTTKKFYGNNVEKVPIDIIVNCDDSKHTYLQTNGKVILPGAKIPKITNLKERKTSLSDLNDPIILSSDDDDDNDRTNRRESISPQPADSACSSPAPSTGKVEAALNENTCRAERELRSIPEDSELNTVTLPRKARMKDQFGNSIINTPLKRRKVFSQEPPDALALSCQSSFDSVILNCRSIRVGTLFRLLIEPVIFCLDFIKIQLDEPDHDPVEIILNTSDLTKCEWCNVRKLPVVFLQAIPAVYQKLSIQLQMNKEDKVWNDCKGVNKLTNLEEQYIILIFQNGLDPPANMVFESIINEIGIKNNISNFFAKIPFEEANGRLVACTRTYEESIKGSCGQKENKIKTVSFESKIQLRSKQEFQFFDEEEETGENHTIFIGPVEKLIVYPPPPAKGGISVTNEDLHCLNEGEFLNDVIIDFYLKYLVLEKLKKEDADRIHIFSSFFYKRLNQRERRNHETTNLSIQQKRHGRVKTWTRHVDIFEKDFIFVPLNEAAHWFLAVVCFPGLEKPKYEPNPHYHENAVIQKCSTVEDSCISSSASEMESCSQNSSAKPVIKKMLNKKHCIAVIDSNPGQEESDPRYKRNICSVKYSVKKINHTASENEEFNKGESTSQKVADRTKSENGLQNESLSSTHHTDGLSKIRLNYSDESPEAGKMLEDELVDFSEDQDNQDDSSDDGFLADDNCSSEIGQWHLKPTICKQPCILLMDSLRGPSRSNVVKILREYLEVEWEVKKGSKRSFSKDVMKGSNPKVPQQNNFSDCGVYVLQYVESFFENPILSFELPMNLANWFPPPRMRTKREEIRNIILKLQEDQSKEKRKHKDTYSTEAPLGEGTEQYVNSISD

[13] = biological target: T7, Sentrin-specific protease 7 (Homo sapiens, UniProt Q9BQF6); test: inhibition of human SENP7 cleavage activity – biochemical, luminescence, SAR follow-up (AID 504497); format: functional
T7 sequence (Q9BQF6 whole entry): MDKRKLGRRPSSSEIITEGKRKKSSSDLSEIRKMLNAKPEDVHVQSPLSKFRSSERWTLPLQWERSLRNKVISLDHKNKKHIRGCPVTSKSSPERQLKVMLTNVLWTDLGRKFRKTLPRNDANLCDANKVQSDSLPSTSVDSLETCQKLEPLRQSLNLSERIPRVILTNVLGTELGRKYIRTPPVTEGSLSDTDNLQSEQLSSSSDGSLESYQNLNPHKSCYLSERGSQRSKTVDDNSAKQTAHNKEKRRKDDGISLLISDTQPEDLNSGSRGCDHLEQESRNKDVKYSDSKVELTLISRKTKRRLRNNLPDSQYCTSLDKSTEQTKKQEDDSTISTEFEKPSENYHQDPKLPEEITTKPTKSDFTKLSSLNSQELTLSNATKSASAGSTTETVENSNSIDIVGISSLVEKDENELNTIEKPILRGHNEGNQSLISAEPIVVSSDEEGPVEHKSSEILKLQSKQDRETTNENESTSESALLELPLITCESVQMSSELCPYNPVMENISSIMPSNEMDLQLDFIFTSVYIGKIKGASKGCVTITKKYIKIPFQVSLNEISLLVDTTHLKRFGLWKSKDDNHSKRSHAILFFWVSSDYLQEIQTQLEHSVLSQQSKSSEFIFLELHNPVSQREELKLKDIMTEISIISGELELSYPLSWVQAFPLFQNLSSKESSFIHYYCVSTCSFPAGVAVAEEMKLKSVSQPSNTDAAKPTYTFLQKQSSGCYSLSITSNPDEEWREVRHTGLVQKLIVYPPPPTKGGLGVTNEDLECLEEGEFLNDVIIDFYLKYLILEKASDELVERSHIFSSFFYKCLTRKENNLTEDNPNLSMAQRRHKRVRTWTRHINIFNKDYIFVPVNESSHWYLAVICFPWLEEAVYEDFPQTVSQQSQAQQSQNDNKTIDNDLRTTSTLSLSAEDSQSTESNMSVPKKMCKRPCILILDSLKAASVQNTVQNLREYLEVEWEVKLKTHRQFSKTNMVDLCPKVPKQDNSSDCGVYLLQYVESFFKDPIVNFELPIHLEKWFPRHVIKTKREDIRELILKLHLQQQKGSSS

[14] = biological target: Glycogen synthase kinase-3 beta (Homo sapiens, UniProt P49841); format: functional;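 further: value comes from a broad kinome profiling panel, with GSK3B as the panel member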
[15] = biological target: Cell division cycle 7-related protein kinase (Homo sapiens, UniProt O00311); format: functional;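 further: value obtained from a kinome-wide kinase panel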
[16] = biological target: cAMP-dependent protein kinase catalytic subunit alpha (Homo sapiens, UniProt P17612); format: functional
[17] = biological target: Dual specificity protein kinase CLK4 (Homo sapiens, UniProt Q9HAZ1); format: functional
[18] = biological target: Homeodomain-interacting protein kinase 2 (Homo sapiens, UniProt Q9H2X6); format: functional;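 further: measured within a kinome-wide kinase profiling panel, HIPK2 being one panel member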
[19] = biological target: T8, Interleukin-1 receptor-associated kinase 4 (Homo sapiens, UniProt Q9NWZ3); format: functional
T8 sequence (Q9NWZ3 whole entry): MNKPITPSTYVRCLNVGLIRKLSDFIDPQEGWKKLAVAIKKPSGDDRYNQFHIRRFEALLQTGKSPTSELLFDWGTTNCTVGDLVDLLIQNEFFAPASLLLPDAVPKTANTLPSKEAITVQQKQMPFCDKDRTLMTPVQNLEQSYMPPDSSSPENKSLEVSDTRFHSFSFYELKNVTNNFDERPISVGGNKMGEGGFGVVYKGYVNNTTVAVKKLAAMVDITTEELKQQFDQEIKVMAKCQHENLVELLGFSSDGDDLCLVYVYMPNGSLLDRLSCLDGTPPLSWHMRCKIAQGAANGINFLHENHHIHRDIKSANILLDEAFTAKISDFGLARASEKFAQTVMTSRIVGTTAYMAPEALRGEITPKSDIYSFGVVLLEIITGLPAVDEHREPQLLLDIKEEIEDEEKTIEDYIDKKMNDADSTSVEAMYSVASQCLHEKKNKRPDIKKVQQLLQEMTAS

[20] = biological target: Serine/threonine-protein kinase pim-1 (Homo sapiens, UniProt P11309); format: functional
Serine/threonine-protein kinase pim-1, sequence (P11309 whole entry): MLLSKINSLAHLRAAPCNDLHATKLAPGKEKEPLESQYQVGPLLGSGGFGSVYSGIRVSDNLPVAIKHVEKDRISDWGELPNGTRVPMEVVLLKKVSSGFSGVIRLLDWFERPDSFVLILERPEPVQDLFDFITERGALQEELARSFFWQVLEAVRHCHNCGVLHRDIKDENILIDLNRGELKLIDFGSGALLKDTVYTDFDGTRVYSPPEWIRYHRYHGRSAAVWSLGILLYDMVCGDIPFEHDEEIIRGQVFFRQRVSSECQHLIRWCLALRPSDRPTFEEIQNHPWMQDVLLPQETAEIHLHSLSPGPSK

Protein Wnt-3a, sequence (P27467 whole entry): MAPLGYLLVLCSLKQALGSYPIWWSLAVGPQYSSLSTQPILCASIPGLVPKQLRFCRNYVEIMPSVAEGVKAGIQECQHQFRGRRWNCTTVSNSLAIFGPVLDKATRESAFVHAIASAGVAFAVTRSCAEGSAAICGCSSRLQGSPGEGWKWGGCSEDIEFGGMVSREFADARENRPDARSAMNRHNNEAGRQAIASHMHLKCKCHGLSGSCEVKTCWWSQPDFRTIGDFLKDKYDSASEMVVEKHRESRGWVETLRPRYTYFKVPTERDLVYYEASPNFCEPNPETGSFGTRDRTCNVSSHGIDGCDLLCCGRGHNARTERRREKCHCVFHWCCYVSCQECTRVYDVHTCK
Homeodomain-interacting protein kinase 2, sequence (Q9H2X6 whole entry): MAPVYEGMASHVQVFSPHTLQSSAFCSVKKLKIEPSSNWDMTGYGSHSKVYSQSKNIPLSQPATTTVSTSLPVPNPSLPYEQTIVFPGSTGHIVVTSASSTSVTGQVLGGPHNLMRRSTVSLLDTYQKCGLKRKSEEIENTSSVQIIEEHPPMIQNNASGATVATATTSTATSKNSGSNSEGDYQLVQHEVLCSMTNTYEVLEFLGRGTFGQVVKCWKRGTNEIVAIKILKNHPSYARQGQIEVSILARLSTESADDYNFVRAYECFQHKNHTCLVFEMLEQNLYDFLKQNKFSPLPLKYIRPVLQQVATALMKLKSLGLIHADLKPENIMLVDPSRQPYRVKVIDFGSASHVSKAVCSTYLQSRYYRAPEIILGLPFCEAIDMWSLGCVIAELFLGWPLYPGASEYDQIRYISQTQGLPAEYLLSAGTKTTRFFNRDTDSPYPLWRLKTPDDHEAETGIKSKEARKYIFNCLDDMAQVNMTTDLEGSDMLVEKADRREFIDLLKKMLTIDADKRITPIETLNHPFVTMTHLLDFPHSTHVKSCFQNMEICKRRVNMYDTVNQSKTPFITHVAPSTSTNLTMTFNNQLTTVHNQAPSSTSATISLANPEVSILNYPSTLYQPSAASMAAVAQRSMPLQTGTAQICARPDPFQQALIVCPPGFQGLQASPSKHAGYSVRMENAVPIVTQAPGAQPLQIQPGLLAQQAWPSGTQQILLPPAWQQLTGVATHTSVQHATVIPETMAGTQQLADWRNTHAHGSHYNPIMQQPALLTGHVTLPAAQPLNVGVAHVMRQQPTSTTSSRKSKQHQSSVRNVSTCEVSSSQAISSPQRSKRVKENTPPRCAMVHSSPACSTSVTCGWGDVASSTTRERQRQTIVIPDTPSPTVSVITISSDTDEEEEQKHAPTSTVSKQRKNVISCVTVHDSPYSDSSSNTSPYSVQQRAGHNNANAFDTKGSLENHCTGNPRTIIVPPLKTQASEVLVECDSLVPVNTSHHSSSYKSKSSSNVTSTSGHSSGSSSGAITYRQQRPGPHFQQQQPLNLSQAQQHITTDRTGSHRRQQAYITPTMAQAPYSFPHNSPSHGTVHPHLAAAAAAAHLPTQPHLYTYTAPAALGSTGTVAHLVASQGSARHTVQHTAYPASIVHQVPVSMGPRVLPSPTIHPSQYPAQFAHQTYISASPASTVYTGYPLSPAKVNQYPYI
Cell division cycle 7-related protein kinase, sequence (O00311 whole entry): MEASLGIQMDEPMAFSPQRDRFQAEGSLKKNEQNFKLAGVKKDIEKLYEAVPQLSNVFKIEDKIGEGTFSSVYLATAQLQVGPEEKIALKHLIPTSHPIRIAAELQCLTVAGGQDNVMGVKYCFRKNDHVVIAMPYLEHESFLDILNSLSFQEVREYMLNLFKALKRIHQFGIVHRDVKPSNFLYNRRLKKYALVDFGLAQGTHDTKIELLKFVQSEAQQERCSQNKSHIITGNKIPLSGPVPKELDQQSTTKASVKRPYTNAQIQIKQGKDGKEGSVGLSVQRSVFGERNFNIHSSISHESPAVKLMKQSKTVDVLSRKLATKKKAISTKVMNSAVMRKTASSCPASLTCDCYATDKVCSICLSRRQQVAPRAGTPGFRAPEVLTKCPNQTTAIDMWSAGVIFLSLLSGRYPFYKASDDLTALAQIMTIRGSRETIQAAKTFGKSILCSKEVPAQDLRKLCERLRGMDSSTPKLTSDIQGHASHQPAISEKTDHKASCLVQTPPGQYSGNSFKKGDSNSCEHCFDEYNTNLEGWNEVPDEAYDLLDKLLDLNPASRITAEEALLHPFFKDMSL
Adenosylmethionine-8-amino-7-oxononanoate aminotransferase, sequence (P9WQ81 whole entry): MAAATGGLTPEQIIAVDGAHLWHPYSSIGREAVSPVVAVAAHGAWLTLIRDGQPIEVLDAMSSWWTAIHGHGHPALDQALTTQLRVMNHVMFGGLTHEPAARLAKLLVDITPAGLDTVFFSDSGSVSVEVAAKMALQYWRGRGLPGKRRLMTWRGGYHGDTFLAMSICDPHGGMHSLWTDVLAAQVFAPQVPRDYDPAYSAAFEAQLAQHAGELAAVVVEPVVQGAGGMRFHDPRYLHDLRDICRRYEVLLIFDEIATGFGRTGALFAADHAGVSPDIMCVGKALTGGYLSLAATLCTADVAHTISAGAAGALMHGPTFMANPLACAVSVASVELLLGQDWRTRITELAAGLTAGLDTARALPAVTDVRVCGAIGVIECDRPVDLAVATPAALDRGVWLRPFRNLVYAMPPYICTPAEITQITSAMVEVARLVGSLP
Phospholipase A2, sequence (P04054 whole entry): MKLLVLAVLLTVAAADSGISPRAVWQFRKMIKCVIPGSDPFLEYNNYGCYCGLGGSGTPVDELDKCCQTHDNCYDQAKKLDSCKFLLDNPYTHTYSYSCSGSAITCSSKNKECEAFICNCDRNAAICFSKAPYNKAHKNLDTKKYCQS
Glycogen synthase kinase-3 beta, sequence (P49841 whole entry): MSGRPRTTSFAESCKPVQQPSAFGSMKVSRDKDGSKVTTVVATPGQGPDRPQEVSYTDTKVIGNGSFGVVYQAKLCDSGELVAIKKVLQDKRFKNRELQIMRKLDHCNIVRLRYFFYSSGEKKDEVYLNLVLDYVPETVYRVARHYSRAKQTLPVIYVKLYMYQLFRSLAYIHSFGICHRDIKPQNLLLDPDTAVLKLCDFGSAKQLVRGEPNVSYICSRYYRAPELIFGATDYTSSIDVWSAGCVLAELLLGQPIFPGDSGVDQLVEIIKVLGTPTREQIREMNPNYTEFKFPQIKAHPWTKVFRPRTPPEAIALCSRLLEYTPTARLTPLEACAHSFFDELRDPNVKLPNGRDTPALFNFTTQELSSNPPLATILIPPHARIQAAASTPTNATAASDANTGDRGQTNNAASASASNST
Dual specificity protein kinase CLK4, sequence (Q9HAZ1 whole entry): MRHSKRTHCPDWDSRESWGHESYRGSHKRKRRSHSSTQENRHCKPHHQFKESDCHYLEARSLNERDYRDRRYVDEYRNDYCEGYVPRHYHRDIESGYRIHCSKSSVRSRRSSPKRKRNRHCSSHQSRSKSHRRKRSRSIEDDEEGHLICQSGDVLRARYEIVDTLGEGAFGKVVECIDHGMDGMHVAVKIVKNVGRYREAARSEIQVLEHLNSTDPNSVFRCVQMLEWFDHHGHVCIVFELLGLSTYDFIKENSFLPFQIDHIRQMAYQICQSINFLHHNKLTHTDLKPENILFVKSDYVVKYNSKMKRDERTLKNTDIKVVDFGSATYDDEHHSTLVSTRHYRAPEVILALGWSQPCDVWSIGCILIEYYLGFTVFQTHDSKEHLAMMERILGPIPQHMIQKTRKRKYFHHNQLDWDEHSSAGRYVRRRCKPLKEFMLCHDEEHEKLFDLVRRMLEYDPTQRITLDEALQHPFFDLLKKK

SMILES: CCc1nn(CCCC(=O)NCc2ccccc2Br)c(=O)c2cc3occc3n12
- EC50 [1]: > 150 µM (not active)
- EC50 [2]: > 150 µM (not active)
- EC50 [3]: 1.12 µM (active)
- IC50 [4]: 16.8 µM (active)
- IC50 [5]: 20 µM (inactive)

SMILES: C=CCn1c(COc2ccccc2F)nnc1SCCN1C(=O)c2ccccc2C1=O
- AC50 [6]: 7.95 µM (active)

SMILES: CCN(CC)S(=O)(=O)c1ccc(C)c(NC(=S)N2CCN(Cc3ccc4c(c3)OCO4)CC2)c1
- IC50 [7]: 2.35 µM (active)

SMILES: CCCn1c(SCC(=O)Nc2nc(-c3ccc(OC)cc3)cs2)nc2c1c(=O)n(C)c(=O)n2C
- EC50 [8]: > 99 µM (inactive)
- IC50 [7]: 1.32 µM (active)
- EC50 [9]: > 99 µM (inactive)

SMILES: O=C(Nc1ccc(-c2nc3cc(Cl)ccc3o2)cc1)c1ccccc1
- IC50 [10]: > 99 µM (inactive)
- IC50 [11]: > 99 µM (inactive)
- IC50 [12]: > 99 µM (inactive)
- IC50 [13]: > 99 µM (inactive)

SMILES: Clc1ccc(N/N=C/c2cn(Cc3ccccc3)c3ccccc23)cc1
- IC50 [10]: > 99 µM (inactive)
- IC50 [11]: > 99 µM (inactive)
- IC50 [12]: > 99 µM (inactive)
- IC50 [13]: > 99 µM (inactive)

SMILES: O=C(Nc1ccc(Oc2ccccc2)cc1)c1ccc2c(c1)OCO2
- IC50 [10]: 1.99 µM (active)
- IC50 [11]: 2.2 µM (active)
- IC50 [12]: 1.55 µM (active)
- IC50 [13]: 1.06 µM (active)

SMILES: NC(=O)c1ccc(-c2ccnc(N)n2)cc1N1CCCCC1
- Ki [14]: 1 µM (active)
- Ki [15]: 0.00794 µM (active)
- Ki [16]: > 7.94 µM (inactive)
- Ki [17]: 0.00316 µM (active)
- Ki [18]: > 3.16 µM (inactive)
- Ki [19]: 5.01 µM (active)
- Ki [20]: > 10 µM (inactive)
